Data as given in patent publication US5391489A, “Proteolytic enzymes from hyperthermophilic bacteria and processes for their production” (Johns Hopkins University, priority 1993, dated 1995).
Like-named read-outs stand apart in the source and are kept apart here.

Tests used:
[1] = test system: purified SDS-resistant proteolytic enzyme preparation; experiment: Effect of denaturing agents on activity of the purified protease (standard azocasein assay); type: biochemical, Pyrococcus furiosus; details: for percentage of original activity: standard assay conditions; for loss of proteolytic activity: 1 molar, at 98° C. for at least 30 minutes
Protocol: Several denaturing agents were added to azocasein, both in the presence and absence of the protease, to control of possible degradation of the substrate in the presence of the agents. […] Thus, high concentrations of urea and guanidinium chloride led to significant abiotic hydrolysis of azocasein such that results were difficult to interpret. The increases in relative activity above 100% are likely the result of the denaturing agents acting to make the azocasein substrate more susceptible to enzymatic hydrolysis.
(§1) Determination of proteolytic activity was based on the cleavage of azocasein (Cowan, D. A., et al., 1987, Biochem, J. 247:121-133). Assay mixtures contained 900 μl of 0.1% azocasein in 0.05M sodium phosphate buffer (pH 7.3 at 100° C.), and 100 μl of sample. The reaction was terminated by the addition of 500 μl of 15% (w/v) trichloracetic acid, and the cooled on ice for 5 min. The precipitate formed was removed by centrifugation at 12,000×g for 3 min in a microcentrifuge. Color release as a result of proteolytic activity was detected by measuring the absorbance of the supernatant at 440 nm. Linear response of the assay was obtained between 0.010 and 0.100 absorbance units. A unit of activity is defined as the amount of protein which produces a change of 0.100 absorbance units at 440 nm for a 30 min. incubation at a given temperature. Total protein was measured using the BioRad assay kit.
(§2) Purified samples of the SDS-resistant protease were obtained by incubation of the cell-free extract for 24 hours in the presence of 1% SDS at 98° C. Extracts treated in this way were then dialyzed against 5 mM sodium phosphate buffer, pH 7.5 at 4° C. overnight and concentrated in a Pharmacia Omegacell Stirred Cell (nominal molecular weight limit of 10 kDa) to a concentration of 2-3 mg/ml protein measured by the Bio-Rad protein assay kit.

[2] = test system: purified SDS-resistant proteolytic enzyme preparation; experiment: Effects of solvents on purified SDS-resistant proteolytic enzyme preparation; type: biochemical, Pyrococcus furiosus
Protocol: as §1, §2

[3] = test system: purified SDS-resistant proteolytic enzyme preparation; experiment: Inhibitor studies on purified SDS-resistant proteolytic enzyme preparation; type: biochemical, Pyrococcus furiosus; details: for inhibition: concentrations below 150 μM; for inhibition at point of complete saturation: reached at 400 μM
Protocol: FIG. 7. Effect of chelating inhibitors EDTA and EGTA on activity at 98° C. of purified SDS-resistant proteolytic enzyme preparation from Pyrococcus furiosus. Samples of purified enzyme preparation were assayed in the standard azocasein with the inhibitor concentrations indicated.
as §1, with “Linear response of the assay was obtained between 0.010 and 0.100 absorbance units.” left out
as §2

[4] = Hydrolysis of synthetic substrate benzoyl DL-arginine p-nitroanilide; type: biochemical; details: at 60° C.
Protocol: (§3) For tests on the substrate specificity of the purified SDS-resistant preparation, benzoyl-L-arginine ethyl ester, benzoyl-DL-arginine p-nitroanilide, serum thymic factor, angiotensin I, and trypsin were obtained from Sigma. Assays of benzoyl-L-arginine ethyl ester and benzoyl-arginine p-nitroanilide were performed as described previously (Schwert, G. W. et al., 1955, Biochem. Biophys. Acta 16:570-575; Erlanger, B. F., et al., 1961, Arch. Biochem. Biophys. 95:271-278) with a change in buffers to 50 mM sodium phosphate buffer, pH 7.5, and a substrate preincubation of two minutes at standard assay temperature.

[5] = Hydrolysis of synthetic substrate benzoyl-L-arginine ethyl ester; type: biochemical; details: at 60° C.
Protocol: as §3

[6] = test system: angiotensin I; experiment: Hydrolysis of peptide angiotensin I (reverse phase separation of products); type: biochemical; details: after two hours at 40° C.
Protocol: FIG. 8. Comparison of hydrolysis products of angiotensin I polypeptide by trypsin and purified SDS-resistant proteolytic enzyme preparation ("Pyrolysin") showing similarity of cleavage except for one additional cleavage by the novel enzyme preparation.
A chromatogram of the cleavage products of angiotensin I after exposure to the purified P. furiosus protease and to trypsin is shown in FIG. 8.
Hydrolysis of peptides was conducted with a modification of a procedure described by Cowan et al., 1987, Biochem. J. 247:121-133). The peptides serum thymic factor and angiotensin I were incubated with the protease from P. furiosus for fifteen and sixty minutes at 98° C., and two hours with trypsin at 40° C. End products were separated by reverse phase chromatography on a Waters high-performance liquid chromatography system using a WISP auto injector and μ-Bondapak C18 with a linear gradient of acetonitrile and water, with 0.1% trifluoroacetic acid in both phases. Peaks from the reverse phase column were dried down in a Savant Speed-Vac and analyzed by Waters Pico-Tag amino acid analysis.

**Q.** For `O[C@H](CS)[C@H](O)CS` (racemic) [dithiothreitol], which “percentage of original activity” value ([1]; 10 mM) is on record?
**A.** Its value is 39.5%.

**Q.** Which “% Activity” value ([2]; 20% (v/v) solvent) does the source give for `CC#N` [Acetonitrile] here?
**A.** Its value is 77%.

**Q.** What about the “% Activity” value ([2]; 50% (v/v) solvent) of the same molecule?
**A.** The value was 71%.

**Q.** What about the “% Activity” value ([2]; 70% (v/v) solvent) of the same molecule?
**A.** Its value is 39%.

**Q.** What does the source list for `CN(C)C=O` [Dimethylformamide]?
**A.** % Activity ([2]; 10% (v/v) solvent): 80%; % Activity ([2]; 50% (v/v) solvent): 13%; % Activity ([2]; 100% solvent): 25%

**Q.** With `O=C(O)CN(CCN(CC(=O)O)CC(=O)O)CC(=O)O` [EDTA] as the molecule, how does the “% inhibition” value ([3]; 100 μM inhibitor) read?
**A.** The value was 7.8%.

**Q.** What about the “% inhibition” value ([3]; 500 μM inhibitor) of the same molecule?
**A.** Its value is 51%.

**Q.** What about the “% inhibition” value ([3]; 10 mM inhibitor) of the same molecule?
**A.** The value was 49%.

**Q.** And the inhibition [3]?
**A.** Its inhibition is “no inhibition”.

**Q.** What about the “inhibition at point of complete saturation” value [3] of the same molecule?
**A.** The value was “about 50%”.

**Q.** Which results are given for `O=C(O)CN(CCOCCOCCN(CC(=O)O)CC(=O)O)CC(=O)O` [EGTA, [Ethylenebis(oxyethylenenitrilo)]tetraacetic acid]?
**A.** % inhibition ([3]; 100 μM inhibitor): 7.8%; % inhibition ([3]; 500 μM inhibitor): 51%; % inhibition ([3]; 10 mM inhibitor): 49%; inhibition [3]: no inhibition; inhibition at point of complete saturation [3]: about 50%

**Q.** Which results are given for `N=C(N)N` [guanidinium chloride]?
**A.** percentage of original activity ([1]; 1M denaturant): 256%; loss of proteolytic activity [1]: no loss of proteolytic activity; percentage of original activity ([1]; 2M denaturant): 299%

**Q.** For `O=C(O)CI` [iodoacetic acid], which “% inhibition” value [3] is on record?
**A.** The value was 0%.

**Q.** With `O=C(O)c1cc[c]([Hg][Cl])cc1` [p-chloromercuribenzoate] as the molecule, how does the “% inhibition” value ([3]; 10 mM inhibitor) read?
**A.** The value was 40%.

**Q.** Which “% inhibition” value ([3]; 10 mM inhibitor) does the source give for `O=S(=O)(F)Cc1ccccc1` [phenyl methylsulfonyl fluoride] here?
**A.** Its value is 0%.

**Q.** Which results are given for `NC(N)=O` [urea]?
**A.** loss of proteolytic activity [1]: no loss of proteolytic activity; percentage of original activity ([1]; 2M denaturant): 124%; percentage of original activity ([1]; 4M denaturant): 138%

**Q.** With `OCCS` [β-mecaptoethanol] as the molecule, how does the “percentage of original activity” value ([1]; 150 mM) read?
**A.** Its value is 57%.

B1: trypsin (protein, UniProt P00760 24-246, looked up)
Serine protease 1: IVGGYTCGANTVPYQVSLNSGYHFCGGSLINSQWVVSAAHCYKSGIQVRLGEDNINVVEGNEQFISASKSIVHPSYNSNTLNNDIMLIKLKSAASLNSRVASISLPTSCASAGTQCLISGWGNTKSSGTSYPDVLKCLKAPILSDSSCKSAYPGQITSNMFCAGYLEGGKDSCQGDSGGPVVCSGKLQGIVSWGSGCAQKNKPGVYTKVCNYVSWIKQTIASN
notes: comparison protease obtained from Sigma
**Q.** For B1, which hydrolysis of substrate [4] is on record?
**A.** The hydrolysis of substrate was “effective”.

**Q.** What about the hydrolysis of substrate [5] of the same molecule?
**A.** The hydrolysis of substrate was “effective”.

**Q.** And the remaining uncleaved peptide [6]?
**A.** Its remaining uncleaved peptide is “still a portion of uncleaved angiotensin I”.
